Drawing on US7642269B2, “Pyrrolo[3,2-B]pyridine derivatives and processes for the preparation thereof” (Yuhan Corporation, priority 2005, dated 2010), this text covers IC50 for 30 molecules.

Where a name gives a salt, the structure may show the parent alone.

Broadly, the IC50 is the concentration at which inhibition is half-maximal. A higher IC50 goes with weaker potency.

The target of the assay is T1, H^+/K^+-ATPase (Sus scrofa, UniProt P19156).
T1 construct: used as an enzyme source of the in vitro enzyme reaction assay of proton pump; from tissue; host or cells: hog gastric fundic mucosa (membrane vesicles, lyophilized)
T1 sequence (P19156 2-1034 limits assumed): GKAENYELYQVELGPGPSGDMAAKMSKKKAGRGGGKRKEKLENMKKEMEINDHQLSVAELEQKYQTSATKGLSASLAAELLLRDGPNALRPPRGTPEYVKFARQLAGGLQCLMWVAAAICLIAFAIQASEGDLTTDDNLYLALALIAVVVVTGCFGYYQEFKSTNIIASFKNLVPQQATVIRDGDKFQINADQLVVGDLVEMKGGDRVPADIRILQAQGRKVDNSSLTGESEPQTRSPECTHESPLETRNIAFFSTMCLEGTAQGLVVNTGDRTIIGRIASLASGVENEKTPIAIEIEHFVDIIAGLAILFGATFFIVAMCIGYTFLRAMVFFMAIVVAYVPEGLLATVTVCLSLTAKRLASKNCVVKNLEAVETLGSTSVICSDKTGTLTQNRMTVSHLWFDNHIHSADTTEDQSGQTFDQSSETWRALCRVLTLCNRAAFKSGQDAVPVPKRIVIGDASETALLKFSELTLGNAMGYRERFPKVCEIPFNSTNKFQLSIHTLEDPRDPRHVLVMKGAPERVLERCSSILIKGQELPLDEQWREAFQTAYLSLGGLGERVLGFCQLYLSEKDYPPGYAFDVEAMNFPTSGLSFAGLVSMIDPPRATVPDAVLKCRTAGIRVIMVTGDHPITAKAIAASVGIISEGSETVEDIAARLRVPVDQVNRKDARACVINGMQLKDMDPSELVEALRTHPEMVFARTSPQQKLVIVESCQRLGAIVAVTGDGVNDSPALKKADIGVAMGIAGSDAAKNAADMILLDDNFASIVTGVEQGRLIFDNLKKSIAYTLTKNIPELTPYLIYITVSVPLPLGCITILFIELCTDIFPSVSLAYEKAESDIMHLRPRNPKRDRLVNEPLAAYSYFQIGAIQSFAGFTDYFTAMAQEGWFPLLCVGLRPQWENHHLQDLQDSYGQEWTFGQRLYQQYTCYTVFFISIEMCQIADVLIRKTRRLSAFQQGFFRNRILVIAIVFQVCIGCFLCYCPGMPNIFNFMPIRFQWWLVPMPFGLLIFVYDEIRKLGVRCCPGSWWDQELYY
T1 sequence (P18434 whole entry partner): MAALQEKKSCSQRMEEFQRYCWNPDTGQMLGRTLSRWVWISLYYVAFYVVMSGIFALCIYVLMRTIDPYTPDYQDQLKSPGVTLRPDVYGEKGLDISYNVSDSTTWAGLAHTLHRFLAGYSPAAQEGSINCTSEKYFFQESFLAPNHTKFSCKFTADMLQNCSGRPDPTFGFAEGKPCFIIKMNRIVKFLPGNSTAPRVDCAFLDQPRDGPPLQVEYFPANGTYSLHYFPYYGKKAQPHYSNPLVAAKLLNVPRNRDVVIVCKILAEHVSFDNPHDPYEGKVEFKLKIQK
In words: Inhibitory effects on proton pump (H^+/K^+-ATPase) activity, hog gastric vesicles. It is filed as biochemical. As to conditions: K^+ stimulated H^+/K^+-ATPase activity, hog gastric vesicle, Pi measured at 620 nm. Here is the method:
Preparation of Gastric Proton Pump Vesicles
The hog fundic regions containing parietal and peptic cells were scraped with slide-glass. The collected cells were suspended in 10 ml of 0.25M sucrose buffer and homogenized using a tight-fitting Teflon-glass homogenizer. The homogenate was centrifuged for 35 min at 8,000 rpm and the pellet was discarded. The supernatant was further centrifuged for 75 min at 25,000 rpm. The resulting pellets were re-suspended in the sucrose buffer (10 ml), and then the suspension was laid onto discontinuous density gradients consisting of 0.25M sucrose buffer and isolation medium containing 9% Ficoll (w/w). After being centrifuged for 3 hours and 15 minutes at 100,000×g, the material at the interface of sucrose buffer and Ficoll solution was collected and then centrifuged for 40 minutes at 100,000×g. The resulting pellets were re-suspended in 1 ml of 5 mM Hepes/Tris buffer (pH 6.1). This material was lyophilized and stored at −70° C. and used as an enzyme source of the in vitro enzyme reaction assay of proton pump.
1-2. Measurement of Inhibitory Effects on Proton Pump (H+/K+-ATPase) activity
The inhibitory effects of the compounds of the present invention against proton pump activity were evaluated in 96-well plate. In this assay, the K^+ specific H^+/K^+-ATPase activity was calculated based on the difference between the activity of H^+/K^+-ATPase activity with K^+ and without K^+ ion. In 96-well plate, 1% dimethylsulfoxide (DMSO) in buffer was added to negative and positive control groups and the diluted compounds of the present invention in buffer were added to test group. All assays were performed in 100 μl reaction volume at room temperature, and the hog gastric vesicle was kept in ice before use. At the beginning of the reaction, 10 μl of reaction buffer containing 1% DMSO was added to the negative and positive control groups and to each concentration of compounds in the test group. Then lyophilized vesicle in 5 mM Pipes/Tris buffer (pH 6.1) was pre-incubated in the presence of various concentrations of test compounds. After a 5 minute incubation, negative and positive buffers were respectively added to the previous reaction mixture. As the substrate, ATP was added to the reaction buffer, and incubated for 30 minutes at 37° C. Enzymatic activity was stopped by the addition of colorimetric reagent (2× malachite green, 1× ammonium molybdate, 1× polyvinyl alcohol, 2× H2O) and the amount of mono phosphate (Pi) in the reaction was measured at 620 nm using the micro plate reader (Genios Pro, TECAN). The difference between the Pi production with K^+ and without K^+ is taken as K^+ stimulated H^+/K^+-ATPase activity.
For the molecule “1-(3-methylbuten-2-yl)-7-(1,2,3,4-tetrahydroisoquinolin-2-yl)-2,3-dimethyl-1H-pyrrolo[3,2-b]pyridine hydrochloride [Example 16]”, inhibition was half-maximal at 190 nM (IC50).

Turning to `Cc1c(C)n(Cc2ccc(Cl)cc2)c2c(N3CCc4ccccc4C3)ccnc12` [Example 1, 1-(4-chlorobenzyl)-7-(1,2,3,4-tetrahydroisoquinolin-2-yl)-2,3-dimethyl-1H-pyrrolo[3,2-b]pyridine hydrochloride], half-maximal inhibition (IC50) was put at 650 nM. The molecule `Cc1c(C)n(Cc2ccc3ccccc3c2)c2c(N3CCc4ccccc4C3)ccnc12` [Example 2, 1-(2-naphthylmethyl)-7-(1,2,3,4-tetrahydroisoquinolin-2-yl)-2,3-dimethyl-1H-pyrrolo[3,2-b]pyridine hydrochloride] had a half-inhibitory concentration (IC50) of 1060 nM. `Cc1c(C)n(CC2OCCO2)c2c(N3CCc4ccccc4C3)ccnc12` [Example 3, 1-(1,3-dioxolan-2-ylmethyl)-7-(1,2,3,4-tetrahydroisoquinolin-2-yl)-2,3-dimethyl-1H-pyrrolo[3,2-b]pyridine hydrochloride]: the IC50 worked out at 640 nM. `COCCn1c(C)c(C)c2nccc(N3CCc4ccccc4C3)c21` [Example 5, 1-(2-methoxyethyl)-7-(1,2,3,4-tetrahydroisoquinolin-2-yl)-2,3-dimethyl-1H-pyrrolo[3,2-b]pyridine hydrochloride] showed a half-inhibitory concentration (IC50) of 320 nM.

For `Cc1c(C)n(Cc2ccccc2)c2c(N3CCc4ccccc4C3)ccnc12` [Example 6, 1-benzyl-7-(1,2,3,4-tetrahydroisoquinolin-2-yl)-2,3-dimethyl-1H-pyrrolo[3,2-b]pyridine hydrochloride], the IC50 came out at 200 nM. In turn, `C=CCn1c(C)c(C)c2nccc(N3CCc4ccccc4C3)c21` [Example 7, 1-allyl-7-(1,2,3,4-tetrahydroisoquinolin-2-yl)-2,3-dimethyl-1H-pyrrolo[3,2-b]pyridine hydrochloride] yielded a half-inhibitory concentration (IC50) of 220 nM.

Molecule `COc1cccc(Cn2c(C)c(C)c3nccc(N4CCc5ccccc5C4)c32)c1` [Example 8, 1-(3-methoxybenzyl)-7-(1,2,3,4-tetrahydroisoquinolin-2-yl)-2,3-dimethyl-1H-pyrrolo[3,2-b]pyridine hydrochloride] showed an IC50 of 440 nM. Regarding `Cc1c(C)n(Cc2ccccc2F)c2c(N3CCc4ccccc4C3)ccnc12` [Example 9, 1-(2-fluorobenzyl)-7-(1,2,3,4-tetrahydroisoquinolin-2-yl)-2,3-dimethyl-1H-pyrrolo[3,2-b]pyridine hydrochloride], inhibition was half-maximal at 330 nM (IC50). Consider `COc1ccc(Cn2c(C)c(C)c3nccc(N4CCc5ccccc5C4)c32)cc1` [Example 10, 1-(4-methoxybenzyl)-7-(1,2,3,4-tetrahydroisoquinolin-2-yl)-2,3-dimethyl-1H-pyrrolo[3,2-b]pyridine hydrochloride], for which the concentration for half-maximal inhibition (IC50) came out at 690 nM. In the case of `Cc1cccc(Cn2c(C)c(C)c3nccc(N4CCc5ccccc5C4)c32)c1` [Example 12, 1-(3-methylbenzyl)-7-(1,2,3,4-tetrahydroisoquinolin-2-yl)-2,3-dimethyl-1H-pyrrolo[3,2-b]pyridine hydrochloride], inhibition was half-maximal at 970 nM (IC50). Next, `CCn1c(C)c(C)c2nccc(N3CCc4ccccc4C3)c21` [Example 13, 1-ethyl-7-(1,2,3,4-tetrahydroisoquinolin-2-yl)-2,3-dimethyl-1H-pyrrolo[3,2-b]pyridine hydrochloride]: 800 nM; `Cc1c(C)n(CCC2OCCO2)c2c(N3CCc4ccccc4C3)ccnc12` [Example 14, 1-[2-(1,3-dioxolan-2-yl)ethyl]-7-(1,2,3,4-tetrahydroisoquinolin-2-yl)-2,3-dimethyl-1H-pyrrolo[3,2-b]pyridine hydrochloride]: 530 nM. Regarding `Cc1c(C)n(Cc2ccc(Cl)cc2)c2c(OCc3ccc(F)cc3)ccnc12` [Example 33, 1-(4-chlorobenzyl)-7-(4-fluorobenzyloxy)-2,3-dimethyl-1H-pyrrolo[3,2-b]pyridine hydrochloride], the half-inhibitory concentration (IC50) was 650 nM.

Molecule `Cc1ccc(Cn2c(C)c(C)c3nccc(OCc4ccc(F)cc4)c32)cc1` [Example 34, 7-(4-fluorobenzyloxy)-2,3-dimethyl-1-(4-methylbenzyl)-1H-pyrrolo[3,2-b]pyridine hydrochloride] yielded an IC50 of 230 nM. To `COC(=O)c1ccc(Cn2c(C)c(C)c3nccc(OCc4ccc(F)cc4)c32)cc1` [Example 35, 4-[7-(4-fluorobenzyloxy)-2,3-dimethyl-pyrrolo[3,2-b]pyridin-1-ylmethyl]-benzoic acid methyl ester hydrochloride] belongs 1090 nM; to `Cc1c(C)n(Cc2ccc3ccccc3c2)c2c(OCc3ccc(F)cc3)ccnc12` [Example 37, 7-(4-fluorobenzyloxy)-2,3-dimethyl-1-(naphthalen-2-ylmethyl)-1H-pyrrolo[3,2-b]pyridine hydrochloride], 1260 nM. `C=COCCn1c(C)c(C)c2nccc(OCc3ccc(F)cc3)c21` [Example 38, 7-(4-fluorobenzyloxy)-2,3-dimethyl-1-(2-vinyloxyethyl)-1H-pyrrolo[3,2-b]pyridine hydrochloride] came in with an IC50 of 1310 nM. With `Cc1c(C)n(CC2OCCO2)c2c(OCc3ccc(F)cc3)ccnc12` [Example 39, 1-(1,3-dioxolan-2-ylmethyl)-7-(4-fluorobenzyloxy)-2,3-dimethyl-1H-pyrrolo[3,2-b]pyridine hydrochloride], it took 220 nM to reach half-maximal inhibition (IC50).

Molecule `Cc1c(C)n(Cc2cccc(F)c2)c2c(OCc3ccc(F)cc3)ccnc12` [Example 40, 1-(3-fluorobenzyl)-7-(4-fluorobenzyloxy)-2,3-dimethyl-1H-pyrrolo[3,2-b]pyridine hydrochloride] returned a half-maximal inhibitory concentration (IC50) of 190 nM.

In turn, `CC(C)=CCn1c(C)c(C)c2nccc(OCc3ccc(F)cc3)c21` [Example 56, hydrochloride] gave a 50% inhibitory concentration (IC50) of 570 nM. Consider `COC(=O)CCn1c(C)c(C)c2nccc(OCc3ccc(F)cc3)c21` [Example 57, 1-[2-(methoxycarbonyl)ethyl]-7-(4-fluorobenzyloxy)-2,3-dimethyl-1H-pyrrolo[3,2-b]pyridine hydrochloride], for which it took 270 nM to reach half-maximal inhibition (IC50). `COc1ccc(Cn2c(C)c(C)c3nccc(OCc4ccc(F)cc4)c32)cc1` [Example 58, 7-(4-fluorobenzyloxy)-1-(4-methoxybenzyl)-2,3-dimethyl-1H-pyrrolo[3,2-b]pyridine hydrochloride] had an IC50 of 230 nM. Next, `COCn1c(C)c(C)c2nccc(OCc3ccc(Cl)cc3)c21` [Example 74, 7-(4-chlorobenzyloxy)-1-methoxymethyl-2,3-dimethyl-1H-pyrrolo[3,2-b]pyridine hydrochloride]: 1080 nM; `Cc1c(C)n(Cc2ccc(C(C)(C)C)cc2)c2c(OCc3ccc(Cl)cc3)ccnc12` [Example 79, 1-(4-tert-butylbenzyl)-7-(4-chlorobenzyloxy)-2,3-dimethyl-1H-pyrrolo[3,2-b]pyridine hydrochloride]: 1590 nM.

Molecule `Cc1c(C)n(Cc2ccncc2)c2c(OCc3ccc(Cl)cc3)ccnc12` [Example 80, 7-(4-chlorobenzyloxy)-2,3-dimethyl-1-(pyridin-4-ylmethyl)-1H-pyrrolo[3,2-b]pyridine hydrochloride] gave an IC50 of 2870 nM. On to `Cc1c(C)n(CC2CNC(=O)O2)c2c(OCc3ccc(Cl)cc3)ccnc12` (stereo not drawn) [Example 81, 5-[7-(4-chlorobenzyloxy)-2,3-dimethyl-pyrrolo[3,2-b]pyridin-1-ylmethyl]-oxazolidin-2-one hydrochloride], for which the half-maximal inhibitory concentration (IC50) turned out to be 1250 nM. In turn, `Cc1ccc(C)c(Cn2c(C)c(C)c3nccc(OCc4ccc(Cl)cc4)c32)c1` [Example 82, 7-(4-chlorobenzyloxy)-1-(2,5-dimethylbenzyl)-2,3-dimethyl-1H-pyrrolo[3,2-b]pyridine hydrochloride] returned an IC50 of 4700 nM. In turn, `COC(=O)Cn1c(C)c(C)c2nccc(OCc3ccc(Cl)cc3)c21` [Example 83, [7-(4-chlorobenzyloxy)-2,3-dimethyl-pyrrolo[3,2-b]pyridin-1-yl]acetic acid methyl ester hydrochloride] registered an IC50 of 3820 nM. In turn, `CC(C)=CCn1c(C)c(C)c2nccc(OCc3ccc(Cl)cc3)c21` [Example 84, 7-(4-chlorobenzyloxy)-2,3-dimethyl-1-(3-methylbut-2-enyl)-1H-pyrrolo[3,2-b]pyridine hydrochloride] had an IC50 of 390 nM.
